Consider 24 compounds from patent US20240398783A1, “Compounds and Pharmaceutical Compositions Comprising Inhibitors of Amyloid Peptide Interactions with Glycosaminoglycans, Methods of Treatment and Use Thereof” (Gismo Therapeutics, Inc., priority 2021, published 2024).

Counter-ions that a name gives are not always drawn.

One assay concerns the target Alpha-Synuclein Protofibril binding to purified human brain membranes (Homo sapiens, UniProt P37840). Kind of assay: Inhibition of protofibrillar alpha-synuclein binding to purified human brain cell membranes (ELISA). Particulars: Alpha-Synuclein/Membrane Activity (IC-50), alpha-synuclein protofibrils. As to the method:
Purified human brain cell membranes were prepared by differential centrifugation as follows. Five grams of frozen human brain postmortem tissue (obtained from University of Kentucky Alzheimer's Disease Center Tissue Bank) was homogenized in 50 ml HEPES-Buffered sucrose (0.32M sucrose, 4 mM HEPES pH7.4, protease inhibitors) with a motor driven glass-teflon homogenizer. After removing nuclear and cell debris by centrifugation of homogenates at 1,000×g for 10 min at 4 degree Celsius, post-nuclear supernatant was centrifuged at 100,000×g for 30 minutes to yield the crude membrane pellet. Crude membrane pellet was re-suspended in 0.32M sucrose, then centrifuged again at 100,000×g for 30 minutes to yield washed membrane pellet. Membrane pellet was resuspended in sterile PBS (pH7.4), quickly frozen, and kept in aliquots at −80 degrees Celsius. This preparation contains human brain cell membranes. Protein concentration was measured with BCA protein assay kit (Pierce Cat. No. 23227). Purified brain membranes were diluted to 0.01 mg/ml in PBS (pH 7.4) and then added to a 96 well polystyrene ELISA plate (NUNC Cat. No. 449824; 100 μl per well). Plates were incubated Over Night (ON) at 4 degrees Celsius. Following the incubation, the plate was washed consecutively, by immersion, with de-ionized water and PBS (pH 7.4). The ELISA plate was then blocked with nonfat milk (2%, 200 μl per well) for 2 hours at Room Temperature (RT). Following blocking, the plate was washed with de-ionized water then PBS (pH 7.4). GBAPs were dissolved and diluted in PBS (pH 6.5, supplemented with 0.1% BSA) at desired concentrations, added to the ELISA plates coated with brain membranes (100 μl per well) and incubated for 2 hours at RT with gentle shaking. Following incubation, the plate was washed with de-ionized water and three times with PBS (pH 6.5) plus Tween. Bound GBAP was detected by a monoclonal antibody specific for that GBAP, followed by incubation with secondary antibody conjugated to horseradish peroxidase (HRP). Antibody was diluted in PBS (pH6.5 supplemented with 1% BSA). Following each incubation with antibody, the plate was washed with de-ionized water and three times with PBS (pH6.5) wash buffer containing 0.1% Tween. The peroxidase substrate chromogen, TMB (Dako Cat. No. S1599) was added (100 μl per well) to the ELISA plate and incubated at room temperature. After 5 minutes ELISA Stop Solution (hydrochloric acid 1N, sulfuric acid 3N) was added (100 μl per well) to stop the peroxidase catalyzed colorimetric reaction. The Optical Density of the samples was measured at 450 nm using an ELISA plate reader (BioTek Synergy H1). Following color development, the % inhibition compared to control was determined. IC-50s were calculated using GraphPad Prism software.
The assay was performed as described in Example 49, with the following modifications. Following to coating the plates with human brain membranes, plates were washed as described. The compounds were dissolved in DMSO at 10 mM final concentration and further diluted prior to assay. DMSO concentration in the screening well was up to 2%. Individual compounds were co-incubated with alpha-synuclein on plates coated with brain membranes. Protofibrillar Alpha-synuclein were prepared as described in Example 45. Protofibrillar Alpha-synuclein diluted in PBS (pH 6.5, supplemented with BSA, 0.1%) was added to the ELISA plate (100 μl per well) and incubated for 2 hours at RT with gentle shaking. Following the incubation, the plate was washed with de-ionized water and three times with PBS (pH 6.5) plus Tween. Bound alpha-synuclein was detected by Anti-Alpha-synuclein Monoclonal Antibody 211 (Santa Cruz Cat. No. sc-12767), followed by secondary anti-IgG antibody conjugated to HRP (R&D System, Cat. No. HAF007). Following to color development with TMB, as described in Example 49, the Optical Density of the samples was measured at 450 nm using an ELISA plate reader. […]
For orientation: In an ELISA, binding on a coated surface is turned into a signal by an enzyme label.
With `Clc1ccc2c(N/N=C/c3ccc(-n4cccn4)cc3)ccnc2c1` [Compound 3, (E)-4-((E)-(4-(1H-pyrazol-1-yl)benzylidene)hydrazono)-7-chloro-1,4-dihydroquinoline], the IC50 is 7.34 µM.

`C[N+](C)(C)Cc1ccc(/C=N\Nc2ccnc3ccc(Cl)cc23)cc1` [Compound 4, (Z)-1-(4-((2-(6-chloroquinolin-4-yl)hydrazineylidene)methyl)phenyl)—N,N,N-trimethylmethanaminium iodide]: the IC50 is 10.7 µM.

With `Fc1ccc2c(N/N=C/c3ccc(CN4CCOCC4)cc3)ccnc2c1` [Compound 6, (E)-4-(4-((2-(7-fluoroquinolin-4-yl)hydrazono)methyl)benzyl)morpholine], the IC50 came out at 3.36 µM.

For `CN1CCN(Cc2ccc(/C=N/Nc3ccnc4cc(Cl)ccc34)cc2)CC1` [Compound 7, (E)-7-chloro-4-(2-(4-((4-methylpiperazin-1-yl)methyl)benzylidene)hydrazinyl)quinolone], the IC50 stood at 42.1 µM.

For `COc1cc2nccc(N/N=C/c3ccc(-n4ccnc4)c(OC)c3)c2cc1OC` [Compound 13, (E)-4-(2-(4-(1H-imidazol-1-yl)-3-methoxybenzylidene)hydrazineyl)-6,7-dimethoxyquinoline phosphate], the IC50 stood at 4.03 µM.

For the compound `Clc1ccc2c(N/N=C/c3ccc(-n4ccnc4)nc3)ccnc2c1` [Compound 14, (E)-4-(2-((6-(1H-imidazol-1-yl)pyridin-3-yl)methylene)hydrazineyl)-7-chloroquinoline hydrochloride], the IC50 worked out at 6.51 µM.

Regarding `Cc1ncn(-c2ccc(/C=N\Nc3ncnc4cc(Cl)ccc34)cn2)c1C` [Compound 15, 7-chloro-4-(2-((6-(4,5-dimethyl-1H-imidazol-1-yl)pyridin-3-yl)methylene)hydrazineyl)quinazoline hydrochloride], the IC50 was 3.06 µM.

For `C/C(=N\Nc1ncnc2cc(Cl)ccc12)c1ccc(-n2cnc(C)c2C)nc1` [Compound 16, 7-chloro-4-(2-(1-(6-(4,5-dimethyl-1H-imidazol-1-yl)pyridin-3-yl)ethylidene)hydrazineyl)quinazoline phosphate], the IC50 was 3.25 µM.

Take `C/C(=N\Nc1ncnc2cc(Cl)ccc12)c1ccc(-n2cc[n+](C)c2)nc1` [Compound 17, (E)-1-(5-(1-(2-(7-chloroquinazolin-4-yl)hydrazineylidene)ethyl)pyridin-2-yl)-3-methyl-1H-imidazol-3-ium iodide phosphoric acid salt]: the IC50 came to 13.1 µM.

With `CC(=NNc1ccnc2cc(Cl)ccc12)c1ccc(-n2cnc(C)c2C)nc1` [Compound 22, 7-chloro-4-(2-(1-(6-(4,5-dimethyl-1H-imidazol-1-yl)pyridin-3-yl)ethylidene)hydrazineyl)quinoline], the IC50 is 10.6 µM.

`C/C(=N\Nc1nncc2cc(Cl)ccc12)c1ccc(-n2cc(C)nc2C)nc1` [Compound 24, (E)-6-chloro-1-(2-(1-(6-(2,4-dimethyl-1H-imidazol-1-yl)pyridin-3-yl)ethylidene)hydrazineyl)phthalazine]: the IC50 came to 4.03 µM.

In the case of `Cc1ncn(-c2ccc(Nc3ncnc4cc(Cl)ccc34)cn2)c1C` [Compound 25, 7-chloro-N-(6-(4,5-dimethyl-1H-imidazol-1-yl)pyridin-3-yl)quinazolin-4-amine], the IC50 was found to be 3.4 µM.

As for `Clc1ccc2c(Nc3ccc(-n4cncn4)nc3)ncnc2c1` [Compound 34, N-(6-(1H-1,2,4-triazol-1-yl)pyridin-3-yl)-7-chloroquinazolin-4-amine phosphoric acid salt], the IC50 came to 4.38 µM.

In the case of `CC(=NNc1ccnc2cc(Cl)ccc12)c1ccc(-n2ccnc2)cc1` [Compound 36, 4-(2-(1-(4-(1H-imidazol-1-yl)phenyl)ethylidene)hydrazineyl)-7-chloroquinoline phosphate], the IC50 is 9.46 µM.

In the case of `Clc1ccc2c(N/N=C/c3ccc(-n4ccnc4)cc3)ccnc2c1` [Compound 38, 4-(2-(4-(1H-imidazol-1-yl)benzylidene)hydrazineyl)-7-chloroquinoline dihydrochloride], the IC50 turned out to be 2.79 µM.

For the compound `CCN1CCN(c2ccc(Nc3ccnc4cc5ccccc5cc34)cc2)CC1` [Compound 39, N-(4-(4-ethylpiperazin-1-yl)phenyl)benzo[g]quinolin-4-amine], the IC50 came to 45.8 µM.

On to `Cc1ncn(-c2ncc(Nc3ncnc4cc(Cl)ccc34)cc2O)c1C` [Compound 40, 5-((7-chloroquinazolin-4-yl)amino)-2-(4,5-dimethyl-1H-imidazol-1-yl)pyridin-3-ol phosphoric acid salt], for which the IC50 worked out at 34.5 µM.

As for `Clc1ccc2c(Nc3ccc(-n4cncn4)nc3)ccnc2c1` [Compound 44, N-(6-(1H-1,2,4-triazol-1-yl)pyridin-3-yl)-7-chloroquinolin-4-amine], the IC50 was 22.3 µM.

Staying with this assay, now noted: alpha-synuclein protofibrils, read-out: Alpha-Synuclein/Membrane Activity (IC-50).
Consider `Cc1cc(-n2ccnc2)ccc1/C=N/Nc1ccnc2cc(Cl)ccc12` [Compound 1, (E)-4-((E)-(4-(1H-imidazol-1-yl)-2-methylbenzylidene)hydrazono)-7-chloro-1,4-dihydroquinoline], for which the IC50 was determined as 10.1 µM.

As to `C/C(=N\Nc1ncnc2cc(Cl)ccc12)c1ccc(-n2cc(C)nc2C)nc1` [Compound 18, (E)-7-chloro-4-(2-(1-(6-(2,4-dimethyl-1H-imidazol-1-yl)pyridin-3-yl)ethylidene)hydrazineyl)quinazoline phosphoric acid salt], the IC50 is 3.73 µM.

Turning to `C/C(=N\Nc1ncnc2cc(F)ccc12)c1ccc(-n2cnc(C)c2C)nc1` [Compound 21, (E)-4-(2-(1-(6-(4,5-dimethyl-1H-imidazol-1-yl)pyridin-3-yl)ethylidene)hydrazineyl)-7-fluoroquinazoline], the IC50 is 1.8 µM.

With `C/C(=N\Nc1ncnc2cc(Cl)ccc12)c1ccc(-n2cc(C)nc2C)nc1` [Compound 27, (E)-7-chloro-4-(2-(1-(6-(2,4-dimethyl-1H-imidazol-1-yl)pyridin-3-yl)ethylidene)hydrazineyl)quinazoline hydrochloride], the IC50 was 7.31 µM.

Turning to `CC(=NNc1ncnc2cc(Cl)ccc12)c1ccnc(-n2cnc(C)c2C)c1` [Compound 28, 7-chloro-4-(2-(1-(2-(4,5-dimethyl-1H-imidazol-1-yl)pyridin-4-yl)ethylidene)hydrazineyl)quinazoline], the IC50 amounted to 3.17 µM.

In the case of `Clc1ccc2c(Nc3ccc(-n4ccnc4)nc3)ncnc2c1` [Compound 41, N-(6-(1H-imidazol-1-yl)pyridin-3-yl)-7-chloroquinazolin-4-amine], the IC50 turned out to be 5.8 µM.
